This assay deals with T1, human muscarinic receptors M3 (Homo sapiens, UniProt P20309).
T1 construct: expressed in transfected cells; host or cells: CHO-K1 (chinese hamster ovary-K1), stably transfected; membrane preparations
The assay is described as follows: biochemical. Conditions: for inhibition at 0.1 µM: read-out: % INHIBITION concentration: 1.00E−07 M; for inhibition at 0.01 µM: read-out: % INHIBITION concentration: 1.00E−08 M. The class given is binding.

Each structure is given as a SMILES string. Counter-ions that a name gives are not always drawn.

T1 sequence (P20309 whole entry): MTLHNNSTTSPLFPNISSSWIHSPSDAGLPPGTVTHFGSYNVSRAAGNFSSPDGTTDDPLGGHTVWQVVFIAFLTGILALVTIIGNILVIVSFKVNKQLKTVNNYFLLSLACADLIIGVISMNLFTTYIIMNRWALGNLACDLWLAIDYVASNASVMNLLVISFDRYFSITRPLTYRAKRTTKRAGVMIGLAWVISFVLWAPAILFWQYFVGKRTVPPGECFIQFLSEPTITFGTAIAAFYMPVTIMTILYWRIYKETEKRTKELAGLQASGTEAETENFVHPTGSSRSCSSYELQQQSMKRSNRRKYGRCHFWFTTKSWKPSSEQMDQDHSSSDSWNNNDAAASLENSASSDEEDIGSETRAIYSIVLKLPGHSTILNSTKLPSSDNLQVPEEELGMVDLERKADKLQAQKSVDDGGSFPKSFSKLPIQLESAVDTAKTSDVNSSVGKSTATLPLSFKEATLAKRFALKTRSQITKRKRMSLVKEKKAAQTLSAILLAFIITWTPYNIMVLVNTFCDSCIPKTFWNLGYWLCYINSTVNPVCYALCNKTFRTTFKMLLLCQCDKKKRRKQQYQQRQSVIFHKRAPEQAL

As to `O=C(O[C@H]1C[N+]2(CCCc3ccccc3)CCC1CC2)[C@](O)(c1ccco1)C1CCCC1` [Example 67, (3R)-3-[(2R)-2-Cyclopentyl-2-fur-2-yl-2-hydroxyacetoxy]-1-(3-phenylpropyl)-1-azoniabicyclo[2.2.2]octane trifluoroacetate], the inhibition at 0.1 µM stood at 75.1% and the inhibition at 0.01 µM was found to be 52.5%.
Turning to `O=C(O[C@H]1C[N+]2(CCCc3cccs3)CCC1CC2)[C@](O)(c1ccccc1)C1CCCCC1` [Example 69, (3R)-3-[(2R)-2-Cyclohexyl-2-hydroxy-2-phenylacetoxy]-1-(3-thien-2-ylpropyl)-1-azoniabicyclo[2.2.2]octane trifluoroacetate], the inhibition at 0.1 µM turned out to be 70.8% and the inhibition at 0.01 µM was 43.9%.
`O=C(O[C@H]1C[N+]2(CCc3ccccc3)CCC1CC2)[C@](O)(c1ccccc1)C1CCCCC1` [Example 70, (3R)-3-[(2R)-2-Cyclohexyl-2-hydroxy-2-phenylacetoxy]-1-phenethyl-1-azoniabicyclo[2.2.2]octane trifluoroacetate]: the inhibition at 0.1 µM was 71.2% and the inhibition at 0.01 µM was found to be 50%.
Consider `O=C(O[C@H]1C[N+]2(CCc3ccccc3)CCC1CC2)[C@](O)(c1ccco1)C1CCCCC1` [Example 80, (3R)-3-[(2R)-2-Cyclohexyl-2-fur-2-yl-2-hydroxyacetoxy]-1-phenethyl-1-azoniabicyclo[2.2.2]octane trifluoroacetate], for which the inhibition at 0.1 µM came to 72.4% and the inhibition at 0.01 µM is 55.8%.
In the case of `O=C(O[C@H]1C[N+]2(CCCc3ccccc3)CCC1CC2)[C@](O)(c1ccco1)C1CCCCC1` [Example 81, (3R)-3-[(2R)-2-Cyclohexyl-2-fur-2-yl-2-hydroxyacetoxy]-1-(3-phenylpropyl)-1-azoniabicyclo[2.2.2]octane trifluoroacetate], the inhibition at 0.1 µM was 70.1% and the inhibition at 0.01 µM was determined as 45.4%.
Take `O=C(O[C@H]1C[N+]2(CCCOc3ccccc3)CCC1CC2)[C@](O)(c1ccccc1)C1CCCC1` [Example 82, (3R)-3-[(2R)-2-Cyclopentyl-2-hydroxy-2-phenylacetoxy]-1-(3-phenoxypropyl)-1-azoniabicyclo[2.2.2]octane trifluoroacetate]: the inhibition at 0.1 µM came to 70.6% and the inhibition at 0.01 µM amounted to 55.3%.
As for `O=C(O[C@H]1C[N+]2(CCc3ccccc3)CCC1CC2)[C@](O)(c1ccccc1)C1CCCC1` [Example 83, (3R)-3-[(2R)-2-Cyclopentyl-2-hydroxy-2-phenylacetoxy]-1-phenethyl-1-azoniabicyclo[2.2.2]octane trifluoroacetate], the inhibition at 0.1 µM is 72.7% and the inhibition at 0.01 µM worked out at 60.3%.
As for `O=C(O[C@H]1C[N+]2(CCCSc3ccccc3)CCC1CC2)[C@](O)(c1ccccc1)C1CCCC1` [Example 84, (3R)-3-[(2R)-2-Cyclopentyl-2-hydroxy-2-phenylacetoxy]-1-(3-phenylsulfanylpropyl)-1-azoniabicyclo[2.2.2]octane trifluoroacetate], the inhibition at 0.1 µM worked out at 68.3% and the inhibition at 0.01 µM turned out to be 41%.
For the molecule `O=C(O[C@H]1C[N+]2(CCc3ccccc3)CCC1CC2)[C@@](O)(c1ccccc1)C1CCCC1` [Example 86, (3R)-3-[(2S)-2-Cyclopentyl-2-hydroxy-2-phenylacetoxy]-1-phenethyl-1-azoniabicyclo[2.2.2]octane trifluoroacetate], the inhibition at 0.1 µM came out at 68.2% and the inhibition at 0.01 µM stood at 37.2%.
Take `O=C(O[C@H]1C[N+]2(CCCOc3ccccc3)CCC1CC2)[C@](O)(c1cccs1)C1CCCCC1` [Example 88, (3R)-3-[(2S)-2-Cyclohexyl-2-hydroxy-2-thien-2-ylacetoxy]-1-(3-phenoxypropyl)-1-azoniabicyclo[2.2.2]octane trifluoroacetate]: the inhibition at 0.1 µM stood at 65.5% and the inhibition at 0.01 µM is 35.7%.
Consider `O=C(O[C@H]1C[N+]2(CCc3ccccc3)CCC1CC2)[C@](O)(c1cccs1)C1CCCCC1` [Example 89, (3R)-3-[(2S)-2-Cyclohexyl-2-hydroxy-2-thien-2-ylacetoxy]-1-phenethyl-1-azoniabicyclo[2.2.2]octane trifluoroacetate], for which the inhibition at 0.1 µM was determined as 68.5% and the inhibition at 0.01 µM is 51.3%.
Consider `O=C(O[C@H]1C[N+]2(CCc3ccccc3)CCC1CC2)[C@@](O)(c1cccs1)C1CCCCC1` [Example 92, (3R)-3-[(2R)-2-Cyclohexyl-2-hydroxy-2-thien-2-ylacetoxy]-1-phenethyl-1-azoniabicyclo[2.2.2]octane trifluoroacetate], for which the inhibition at 0.1 µM is 69.4% and the inhibition at 0.01 µM was 49.2%.
Turning to `CC(C)[N+]1(C)[C@@H]2CC[C@H]1C[C@@H](OC(=O)C(CO)c1ccccc1)C2` (some centres unmarked) [Ipratropium bromide, reference compound], the inhibition at 0.1 µM is 93.8% and the inhibition at 0.01 µM came out at 67.2%.

The values are drawn from US7122558B2 (priority 2000, dated 2006).
